Test results published in patent publication US20050014946A1, “Substituted amino ketone compounds” (priority 2001, published 2005).

Target: DP IV (Sus scrofa, UniProt P22411)
Experiment: Ki-determination, photometric DP IV assay with substrate GP-4-Nitroanilide
Assay type: biochemical
Conditions: competitor of GP-4-Nitroanilide, 3.5 nM DP IV, 30° C., pH 7.6 40 mM HEPES
Procedure: In order to measure the inhibition constant Ki a photometric assay was used The test compounds were measured as competitors of the standard substrate GP-4-Nitroanilide. Three different substrate concentrations (0.4 mM to 0.05 mM) were combined with 8 different competitor concentrations (0.5 mM to 2 μM). The reaction was started by addition of 3.5 nM DP IV. Experiments were carried out under standard conditions: 30° C. in pH 7.6 40 mM HEPES (Sigma-Aldrich) buffer. Nitroaniline production was monitored using a HTS 7000+microplate reader (PerkinElmer, Überlingen, Germany). The Ki-values were calculated via non-linear regression using the enzyme kinetic program Grafit 4.016 (Erithacus Ltd, UK).

Chain of DP IV (P22411 whole entry): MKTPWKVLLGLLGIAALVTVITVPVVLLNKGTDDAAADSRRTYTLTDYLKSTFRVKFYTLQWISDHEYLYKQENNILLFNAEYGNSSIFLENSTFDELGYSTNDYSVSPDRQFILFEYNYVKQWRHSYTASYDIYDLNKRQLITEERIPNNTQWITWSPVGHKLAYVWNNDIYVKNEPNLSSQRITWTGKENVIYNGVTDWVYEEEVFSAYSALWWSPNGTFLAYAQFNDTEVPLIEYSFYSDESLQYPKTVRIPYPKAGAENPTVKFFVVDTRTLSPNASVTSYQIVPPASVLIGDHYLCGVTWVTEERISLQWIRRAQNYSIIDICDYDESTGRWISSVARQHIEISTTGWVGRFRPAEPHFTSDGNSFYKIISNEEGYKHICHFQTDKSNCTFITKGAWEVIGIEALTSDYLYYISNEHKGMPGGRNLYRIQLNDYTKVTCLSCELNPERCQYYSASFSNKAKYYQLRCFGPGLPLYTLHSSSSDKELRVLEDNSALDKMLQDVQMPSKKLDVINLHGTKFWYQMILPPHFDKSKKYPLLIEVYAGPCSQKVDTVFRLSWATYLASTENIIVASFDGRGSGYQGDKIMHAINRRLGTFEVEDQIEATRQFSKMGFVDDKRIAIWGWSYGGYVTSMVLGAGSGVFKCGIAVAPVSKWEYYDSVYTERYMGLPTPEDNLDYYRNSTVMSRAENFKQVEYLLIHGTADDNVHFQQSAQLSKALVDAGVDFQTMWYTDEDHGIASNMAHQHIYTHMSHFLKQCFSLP

CCC(C)C(N)C(=O)C1CCCC1 (stereo not shown) [Example 1, 1-cyclopentyl-3-methyl-1-oxo-2-pentanaminium chloride] gave a Ki of 6.29 µM.
